Reference: patent publication US10406166B2, “Antimicrobial compound” (priority 2015, dated 2019)
Read-outs that look alike come from different tables or passages of the source.

Assays:
Bacillus subtilis = assay: Antimicrobial susceptibility (MIC, agar dilution); format: cell-based; details: Isosensitest agar, 128-1 μg/mL, 37° C. for 24 h
Protocol: (§1) For each putative antimicrobial, determination of the antimicrobial susceptibility was performed in strict accordance with the recommendations of the British Society for Antimicrobial Chemotherapy. Isosensitest agar (Oxoid) was prepared according to the manufacturer's instructions and sterilized by autoclaving at 116° C. for 20 min. This was then cooled to 50° C. in a waterbath. A 10 mg sample of each antimicrobial was dissolved in 1 mL DMSO. A 256 μL aliquot was added to 19.744 mL of molten Isosensitest agar at 50° C. and mixed well. This was poured into a Petri dish to produce a culture plate containing a final concentration of 128 μg/mL. Smaller volumes of solution (ranging from 128-2 μL) were also incorporated into agar plates in similar fashion to produce a final concentration range of 128-1 μg/mL. A set of control plates was prepared containing DMSO at an identical concentration range without antimicrobial.
(§2) A panel of microorganisms was obtained from the National Collection of Type Cultures (NCTC), Colindale, UK, the National Collection of Pathogenic Fungi (NCPF), Colindale, UK, and the American Type Culture Collection (ATCC), Manassas, Va. USA. The panel included a range of pathogenic species and comprised Bacillus subtillis, Listeria monocytogenes, Staphyloccci epidermidis, Staphylococcus aureus, Staphylococcus aureus (MRSA) and Streptococcis pyogenes, all of which are Gram-positive bacteria. Each strain was cultured onto Columbia agar (Oxoid) and incubated overnight at 37° C. Colonies were then suspended in sterile distilled water (SDW) to produce a suspension of 1.5×10^8 colony forming units CFU/mL using a densitometer. This suspension was then diluted 1/15 in SDW and 1 μL was inoculated onto all test media using a semi-automated multipoint inoculator (final inoculum: 10 000 CFU per spot). All media were incubated at 37° C. for 24 h and examined for the presence of growth. […] All tests were repeated on a separate occasion to ensure reproducibility.
(§3) Determination of the antimicrobial susceptibility of the samples containing the isolated R and S enantiomers was performed as set out in Example 2.

Listeria monocytogenes = assay: Antimicrobial susceptibility (MIC, agar dilution); format: cell-based; details: Isosensitest agar, 128-1 μg/mL, 37° C. for 24 h
Protocol: as §1, §2, §3

Staphyloccci epidermidis = assay: Antimicrobial susceptibility (MIC, agar dilution); format: cell-based; details: Isosensitest agar, 128-1 μg/mL, 37° C. for 24 h
Protocol: as §1, §2, §3

[1] = test system: Staphylococcus aureus (MRSA); assay: Antimicrobial susceptibility (MIC, agar dilution); format: cell-based; details: Isosensitest agar, 128-1 μg/mL, 37° C. for 24 h
Protocol: as §1, §2, §3

Staphylococcus aureus = assay: Antimicrobial susceptibility (MIC, agar dilution); format: cell-based; details: Isosensitest agar, 128-1 μg/mL, 37° C. for 24 h
Protocol: as §1, §2, §3

Streptococcis pyogenes = assay: Antimicrobial susceptibility (MIC, agar dilution); format: cell-based; details: Isosensitest agar, 128-1 μg/mL, 37° C. for 24 h
Protocol: as §1, §2, §3

Cell cytotoxicity CC50 = format: cell-based; details: human, 6-8 days, top concentration 100 μM, read-out: CC50 (concentration at which 50% cell toxicity is observed)
From the text: (§4) Notes Cell obtained from ATCC and virus prep was subjected to one round of centrifugation through a 40% (V/V) glycerol to remove any interferon produced from infected cells. Growth medium was Dulbecco's modified Eagle's medium (DMEM) with 10% (v/v) foetal calf serum (FCS), Viral maintenance medium was DMEM+2% (v/v) FCS
Cell Cytotoxicity—CC50 (concentration at which 50% cell toxicity is observed):
A549 cells and HeLa cells were used to seed a set of 96 well plates grown until 50% confluent, a 2 fold serial dilution of 5-Phenyl-S-3-amino-2,3-dihydro-1H-1,4-benzodiazepin-2-one (5) was performed on each cell line with DMSO (only) as control starting with 100 μM of 5-Phenyl-S-3-amino-2,3-dihydro-1H-1,4-benzodiazepin-2-one (5). Medium used was DMEM+2% FCS (normal medium for viral growth).
Cells were allowed to grow for 6-8 days to mimic a TCID50 assay after which cell viability was determined by adding Almar blur (similar to XTT) and reading at 600 nm (excitation 540 nm). No significant difference was observed between cells treated with 5-Phenyl-S-3-amino-2,3-dihydro-1H-1,4-benzodiazepin-2-one (5) and the DMSO control. No significant difference was observed between HeLa and A549 cells.

RSV A2 strain = assay: Infected cell viability assay (A549 only); format: cell-based, Human RSV (Respiratory Syncytial Virus); details: human respiratory syncytial virus, moi 0.1, 8 days
Protocol: as §4
96 wells plates were set up as previously described. As before a 2 fold serial dilution of 5-Phenyl-S-3-amino-2,3-dihydro-1H-1,4-benzodiazepin-2-one (5) was added prior to addition of virus at a multiplicity of infection (moi) of 0.1, as determined by a plaque assay, in a volume of 50 μl (starting conc 100 μM). After incubating for 4 hours RSV A2 strain was added at an moi of 0.1 maintaining the concentration of 5-Phenyl-S-3-amino-2,3-dihydro-1H-1,4-benzodiazepin-2-one (5). As before, DMSO was the control. The final lane was a mock infected minus 5-Phenyl-S-3-amino-2,3-dihydro-1H-1,4-benzodiazepin-2-one (5) to show viability of cells after 8 days incubation.
Every two days for up to 8 days the media plus drug was replaced to maintain activity, after 8 days cell viability was assayed by cell staining with methylene blue. Each experiment was performed twice with similar results, see FIG. 14.
An alternative experiment was set up as before except virus, at an moi of 0.1, was added before the drug and allowed to incubate for 4 hours. […]

RSV = assay: Plaque reduction assay; format: cell-based, Human RSV (Respiratory Syncytial Virus); details: A549, 10 μM added 3-4 hours before RSV; control titre 4.5×10^5
Protocol: as §4
A549 cells were seeded into a T25 flask and grown until 60-70% confluent. To one set of flasks (n=3) 5-Phenyl-S-3-amino-2,3-dihydro-1H-1,4-benzodiazepin-2-one (5) in DMSO was added at a concentration of 10 μM and allowed to incubate for 3-4 hours before the addition of RSV at an […] and incubated until extensive cytopathic effect (cpe) was evident, usually after 3 days. The concentration of 5-Phenyl-S-3-amino-2,3-dihydro-1H-1,4-benzodiazepin-2-one (5) was kept constant by replacing the medium each day (RSV is largely cell associated). After which virus was harvested by homogenising the cells in a final volume of 1 ml. The viral titre was determined by plaque assay and staining after 8 days. A control assay was conducted using DMSO in place of the DMSO solution of 5-Phenyl-S-3-amino-2,3-dihydro-1H-1,4-benzodiazepin-2-one (5). […]

[2] = aqueous; cited from earlier work

O=c1n(-c2c(F)c(F)nc(F)c2F)c2ccccc2n1-c1c(F)c(F)nc(F)c1F
melting point: 154.9 to 156 °C

O=C1C(=O)N(c2c(F)c(F)nc(F)c2F)c2ccccc21
melting point: 160.3 to 162.6 °C

COC(=O)CNc1c(F)c(F)nc(F)c1F
melting point: 67.8 to 68.7 °C

O=C1Nc2ccccc2C(c2ccccc2)=NC1Nc1c(F)c(F)nc(F)c1F (racemic) [Compound 5, 5-Phenyl-3-[(tetrafluoropyridin-4-yl)amino]-2,3-dihydro-1H-1,4-benzodiazepin-2-one]
antibacterial activity (by minimum inhibitory concentration) (Bacillus subtilis): not | antibacterial activity (by minimum inhibitory concentration) (Listeria monocytogenes): exhibited antibacterial activity | antibacterial activity (by minimum inhibitory concentration) (Listeria monocytogenes; listed as racemate): effective | antibacterial activity (by minimum inhibitory concentration) (Staphyloccci epidermidis): exhibited antibacterial activity | antibacterial activity (by minimum inhibitory concentration) (Staphyloccci epidermidis; listed as racemate): effective | antibacterial activity (by minimum inhibitory concentration) [1]: exhibited antibacterial activity | antibacterial activity (by minimum inhibitory concentration) ([1]; listed as racemate): effective | antibacterial activity (by minimum inhibitory concentration) (Staphylococcus aureus): exhibited antibacterial activity | antibacterial activity (by minimum inhibitory concentration) (Staphylococcus aureus; listed as racemate): effective | antibacterial activity (by minimum inhibitory concentration) (Streptococcis pyogenes): exhibited antibacterial activity | antibacterial activity (by minimum inhibitory concentration) (Streptococcis pyogenes; listed as racemate): effective | CC50 (Cell cytotoxicity CC50; A549 cells): ≥ 100 µM | CC50 (Cell cytotoxicity CC50; HeLa cells): ≥ 100 µM | EC50 (RSV A2 strain; A549, compound added 4 hours before virus, Reed and Meunch, read-out: half maximal effective concentration (EC50)): 2.4 µM | EC50 (RSV A2 strain; A549, virus added 4 hours before the drug, Reed & Meunch, read-out: EC50): ~3 µM | viral titre after exposure (RSV): 2.3×10^3 viral infectivity units

O=C1Nc2ccccc2C(c2ccccc2)=N[C@@H]1Nc1c(F)c(F)nc(F)c1F (single isomer, unassigned; enantiomer 5) [S enantiomer, 5-Phenyl-S-3-[(tetrafluoropyridin-4-yl)amino]-2,3-dihydro-1H-1,4-benzodiazepin-2-one]
antibacterial activity (by minimum inhibitory concentration) (Bacillus subtilis): effective | antibacterial activity (by minimum inhibitory concentration) (Listeria monocytogenes): effective | antibacterial activity (by minimum inhibitory concentration) (Staphyloccci epidermidis): effective | antibacterial activity (by minimum inhibitory concentration) [1]: effective | antibacterial activity (by minimum inhibitory concentration) (Staphylococcus aureus): effective | antibacterial activity (by minimum inhibitory concentration) (Streptococcis pyogenes): effective

O=C1Nc2ccc(Cl)cc2C(c2ccccc2Cl)=NC1O (centres unmarked) [Lorazepam]
pKa [2]: ~13.0

O=C1Nc2ccccc2C(c2ccccc2)=N[C@H]1Nc1c(F)c(F)nc(F)c1F [R enantiomer, 5-Phenyl-R-3-[(tetrafluoropyridin-4-yl)amino]-2,3-dihydro-1H-1,4-benzodiazepin-2-one]
antibacterial activity (by minimum inhibitory concentration) (Staphyloccci epidermidis): effective | antibacterial activity (by minimum inhibitory concentration) [1]: effective | antibacterial activity (by minimum inhibitory concentration) (Staphylococcus aureus): effective
